This is an account of results in ChEMBL document CHEMBL5500383, “Recent advances and future directions on small molecule VEGFR inhibitors in oncological conditions” (Eur J Med Chem, 2024).

pIC50: −log10 of the molar value. Converted amounts (≈) assume the structure as drawn.

The target of data set [1] is Histone deacetylase 4 (Homo sapiens, UniProt P56524). The data set is described as follows: Inhibition of HDAC4 (unknown origin).
The test system of data set [2] is CAKI-1. The data set can be described thus: Cytotoxicity against human CAKI-1 cells assessed as reduction in cell growth incubated for 48 hrs by MTT assay. It is filed as functional, cell-based. To be noted: CAKI-1, 48 h.
The subject of data set [3] is A498. The data set is described as follows: Cytotoxicity against human A498 cells assessed as reduction in cell viability incubated for 48 hrs by MTT assay. It is filed as functional, cell-based. The following applies: A498, 48 h. (Tetrazolium dyes change colour on reduction, which living cells bring about.)
Data set [4] concerns the target T1, Vascular endothelial growth factor receptor 2 (Homo sapiens, UniProt P35968). The data set is described as follows: Inhibition of VEGFR2 (unknown origin).
Data set [5] has as its system HepG2. The data set can be described thus: Cytotoxicity against human HepG2 cells assessed as inhibition of cell growth incubated for 48 hrs by MTT assay. It is filed as functional, cell-based. To be noted: HepG2, 48 h.
Data set [6] has as its system HCT-116. The data set is described as follows: Cytotoxicity against human HCT-116 cells assessed as inhibition of cell growth incubated for 48 hrs by MTT assay. In kind it is functional, cell-based. The following applies: HCT-116, 48 h.
For data set [7], the system named is MCF7. The data set can be described thus: Cytotoxicity against human MCF7 cells assessed as inhibition of cell growth incubated for 48 hrs by MTT assay. It is filed as functional, cell-based. To be noted: MCF7, 48 h.
The test system of data set [8] is PC-3. The data set is described as follows: Cytotoxicity against human PC-3 cells assessed as inhibition of cell growth incubated for 48 hrs by MTT assay. To be noted: PC-3, 48 h. In kind it is functional, cell-based.
The subject of data set [9] is HepG2. The data set can be described thus: Antiproliferative activity against human HepG2 cells assessed as reduction in cell viability incubated for 24 hrs by MTT assay. In kind it is functional, cell-based. The following applies: HepG2, 24 h.
Data set [10] relates to PC-3. The data set is described as follows: Antiproliferative activity against human PC-3 cells assessed as reduction in cell viability incubated for 24 hrs by MTT assay. It is filed as functional, cell-based. To be noted: PC-3, 24 h.
Data set [11] deals with MCF7. The data set can be described thus: Antiproliferative activity against human MCF7 cells assessed as reduction in cell viability incubated for 24 hrs by MTT assay. In kind it is functional, cell-based. To be noted: MCF7, 24 h.
For data set [12], the target named is T1, Vascular endothelial growth factor receptor 2. The data set is described as follows: Inhibition of human VEGFR2 by discoverX kinome scan assay.
Data set [13] shares this target. The data set is described as follows: Inhibition of human recombinant VEGFR2 using biotinylated poly-GluTyr (4:1) as susbtrate measured for 1 hr by ELISA method.
Data set [14] deals with HepG2. The data set is described as follows: Cytotoxicity against human HepG2 cells assessed as reduction in cell viability measured after 72 hrs by MTT assay. It is filed as functional, cell-based. To be noted: HepG2, 72 h.
The subject of data set [15] is HCT-116. The data set can be described thus: Cytotoxicity against human HCT-116 cells assessed as reduction in cell viability measured after 72 hrs by MTT assay. In kind it is functional, cell-based. The following applies: HCT-116, 72 h.
For data set [16], the system named is MCF7. The data set is described as follows: Cytotoxicity against human MCF7 cells assessed as reduction in cell viability measured after 72 hrs by MTT assay. It is filed as functional, cell-based. To be noted: MCF7, 72 h.
A short description of data set [17]: Cytotoxicity against African green monkey Vero cells assessed as inhibition of cell growth incubated for 24 hrs by MTT assay. It is filed as toxicity, cell-based, Chlorocebus sabaeus.
In data set [18] the target is Histone deacetylase 1 (Homo sapiens, UniProt Q13547). The data set can be described thus: Inhibition of HDAC1 (unknown origin).
Sequence of Histone deacetylase 1 (Q13547 whole entry): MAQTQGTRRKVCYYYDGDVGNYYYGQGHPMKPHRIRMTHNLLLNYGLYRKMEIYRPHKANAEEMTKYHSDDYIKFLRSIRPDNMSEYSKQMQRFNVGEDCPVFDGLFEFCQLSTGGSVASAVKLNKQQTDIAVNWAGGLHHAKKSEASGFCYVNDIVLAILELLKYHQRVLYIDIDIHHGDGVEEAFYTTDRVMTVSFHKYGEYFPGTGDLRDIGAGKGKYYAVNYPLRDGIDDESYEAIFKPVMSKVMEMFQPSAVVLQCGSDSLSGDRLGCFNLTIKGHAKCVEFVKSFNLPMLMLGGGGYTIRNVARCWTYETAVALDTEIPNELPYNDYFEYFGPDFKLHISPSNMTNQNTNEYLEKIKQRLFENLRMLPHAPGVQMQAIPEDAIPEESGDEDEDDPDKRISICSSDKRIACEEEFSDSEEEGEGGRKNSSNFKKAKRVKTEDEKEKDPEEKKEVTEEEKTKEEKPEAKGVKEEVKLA
The target of data set [19] is T2, Protein deacetylase HDAC6 (Homo sapiens, UniProt Q9UBN7).
T2 sequence (Q9UBN7 whole entry): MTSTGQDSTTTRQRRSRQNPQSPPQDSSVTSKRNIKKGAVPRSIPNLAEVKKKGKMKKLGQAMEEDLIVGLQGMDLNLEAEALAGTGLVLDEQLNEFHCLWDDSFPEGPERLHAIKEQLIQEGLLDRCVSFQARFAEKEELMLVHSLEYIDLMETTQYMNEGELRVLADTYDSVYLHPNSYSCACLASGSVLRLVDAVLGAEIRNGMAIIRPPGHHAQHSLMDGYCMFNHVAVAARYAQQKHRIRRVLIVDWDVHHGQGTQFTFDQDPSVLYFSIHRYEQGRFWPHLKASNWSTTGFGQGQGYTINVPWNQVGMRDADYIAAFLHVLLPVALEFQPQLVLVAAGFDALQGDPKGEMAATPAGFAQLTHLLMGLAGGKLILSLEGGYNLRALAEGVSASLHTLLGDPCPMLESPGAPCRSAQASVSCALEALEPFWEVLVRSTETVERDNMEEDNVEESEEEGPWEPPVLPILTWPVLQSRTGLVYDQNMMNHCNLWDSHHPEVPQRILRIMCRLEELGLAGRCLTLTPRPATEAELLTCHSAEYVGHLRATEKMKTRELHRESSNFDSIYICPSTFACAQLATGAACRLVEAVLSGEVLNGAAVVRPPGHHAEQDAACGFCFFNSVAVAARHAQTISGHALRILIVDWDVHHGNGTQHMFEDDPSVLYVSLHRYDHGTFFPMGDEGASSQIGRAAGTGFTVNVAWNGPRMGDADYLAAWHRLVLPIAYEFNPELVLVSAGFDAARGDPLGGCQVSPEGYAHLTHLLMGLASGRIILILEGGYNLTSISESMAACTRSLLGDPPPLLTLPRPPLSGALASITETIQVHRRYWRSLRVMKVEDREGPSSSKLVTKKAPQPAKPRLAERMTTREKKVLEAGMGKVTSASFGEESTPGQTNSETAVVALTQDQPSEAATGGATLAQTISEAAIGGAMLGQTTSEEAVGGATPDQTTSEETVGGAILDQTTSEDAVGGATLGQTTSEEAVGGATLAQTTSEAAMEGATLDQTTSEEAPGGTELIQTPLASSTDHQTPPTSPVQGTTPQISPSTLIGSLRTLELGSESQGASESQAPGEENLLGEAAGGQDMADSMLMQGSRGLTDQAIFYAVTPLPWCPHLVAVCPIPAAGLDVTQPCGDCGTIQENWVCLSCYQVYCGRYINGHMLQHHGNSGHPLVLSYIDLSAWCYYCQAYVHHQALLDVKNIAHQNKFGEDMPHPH
The data set is described as follows: Inhibition of HDAC6 (unknown origin).

In data set [20] the target is Vascular endothelial growth factor receptor 1 (Homo sapiens, UniProt P17948). The data set can be described thus: Inhibition of VEGFR1 (unknown origin).
Sequence of Vascular endothelial growth factor receptor 1 (P17948 whole entry): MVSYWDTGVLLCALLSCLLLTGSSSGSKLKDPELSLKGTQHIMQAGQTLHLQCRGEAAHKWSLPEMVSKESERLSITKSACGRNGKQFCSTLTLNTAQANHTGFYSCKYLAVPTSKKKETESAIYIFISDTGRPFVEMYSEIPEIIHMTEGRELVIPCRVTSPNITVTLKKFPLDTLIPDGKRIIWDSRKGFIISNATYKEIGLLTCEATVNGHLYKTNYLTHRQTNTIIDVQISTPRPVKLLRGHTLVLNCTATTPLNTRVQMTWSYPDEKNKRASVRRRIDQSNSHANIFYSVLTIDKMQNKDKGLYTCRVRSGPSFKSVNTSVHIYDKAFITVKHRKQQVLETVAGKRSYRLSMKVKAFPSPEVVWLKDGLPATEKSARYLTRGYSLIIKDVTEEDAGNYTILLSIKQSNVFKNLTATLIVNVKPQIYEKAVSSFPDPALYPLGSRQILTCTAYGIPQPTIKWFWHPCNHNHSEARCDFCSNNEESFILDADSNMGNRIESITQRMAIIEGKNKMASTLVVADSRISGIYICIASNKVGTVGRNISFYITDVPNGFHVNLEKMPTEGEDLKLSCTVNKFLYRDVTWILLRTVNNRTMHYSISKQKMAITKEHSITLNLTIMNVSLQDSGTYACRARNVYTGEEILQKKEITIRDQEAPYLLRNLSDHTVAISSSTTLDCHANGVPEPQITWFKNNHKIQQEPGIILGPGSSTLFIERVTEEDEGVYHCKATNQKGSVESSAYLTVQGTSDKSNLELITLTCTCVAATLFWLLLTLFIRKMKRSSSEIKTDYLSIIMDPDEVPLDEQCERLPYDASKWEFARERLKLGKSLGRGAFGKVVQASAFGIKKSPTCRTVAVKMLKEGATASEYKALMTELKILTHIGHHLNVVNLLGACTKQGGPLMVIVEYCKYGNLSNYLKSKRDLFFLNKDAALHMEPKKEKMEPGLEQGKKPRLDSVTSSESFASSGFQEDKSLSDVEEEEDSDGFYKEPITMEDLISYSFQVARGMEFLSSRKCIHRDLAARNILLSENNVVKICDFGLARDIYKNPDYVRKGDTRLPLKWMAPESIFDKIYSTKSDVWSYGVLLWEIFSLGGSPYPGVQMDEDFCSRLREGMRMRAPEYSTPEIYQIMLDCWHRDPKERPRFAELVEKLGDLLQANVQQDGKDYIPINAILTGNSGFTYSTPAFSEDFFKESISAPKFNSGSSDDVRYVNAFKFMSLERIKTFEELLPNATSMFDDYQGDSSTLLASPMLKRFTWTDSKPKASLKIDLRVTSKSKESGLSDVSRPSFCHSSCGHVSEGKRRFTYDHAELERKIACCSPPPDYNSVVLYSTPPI
The target of data set [21] is Vascular endothelial growth factor receptor 3 (Homo sapiens, UniProt P35916). The data set can be described thus: Inhibition of VEGFR3 (unknown origin).
For data set [22], the system named is A549. The data set is described as follows: Antiproliferative activity against human A549 cells assessed as reduction in cell viability. In kind it is functional, cell-based.
Data set [23] deals with NCI-H441. The data set is described as follows: Antiproliferative activity against human NCI-H441 cells assessed as reduction in cell viability. In kind it is functional, cell-based.
The subject of data set [24] is NCI-H1650. The data set can be described thus: Antiproliferative activity against human NCI-H1650 cells assessed as reduction in cell viability. In kind it is functional, cell-based.
For data set [25], the system named is NCI-H1975. The data set can be described thus: Antiproliferative activity against human NCI-H1975 cells assessed as reduction in cell viability. It is filed as functional, cell-based.
Data set [26] deals with Serine/threonine-protein kinase B-raf (Homo sapiens, UniProt P15056). The data set can be described thus: Inhibition of wild type BRAF (unknown origin).
The target of data set [27] is Serine/threonine-protein kinase B-raf (Homo sapiens, UniProt P15056, V600E). The data set can be described thus: Inhibition of BRAF V600E mutant (unknown origin).
Sequence of Serine/threonine-protein kinase B-raf (Homo sapiens, UniProt P15056, V600E) (P15056 2-766 V600E limits assumed): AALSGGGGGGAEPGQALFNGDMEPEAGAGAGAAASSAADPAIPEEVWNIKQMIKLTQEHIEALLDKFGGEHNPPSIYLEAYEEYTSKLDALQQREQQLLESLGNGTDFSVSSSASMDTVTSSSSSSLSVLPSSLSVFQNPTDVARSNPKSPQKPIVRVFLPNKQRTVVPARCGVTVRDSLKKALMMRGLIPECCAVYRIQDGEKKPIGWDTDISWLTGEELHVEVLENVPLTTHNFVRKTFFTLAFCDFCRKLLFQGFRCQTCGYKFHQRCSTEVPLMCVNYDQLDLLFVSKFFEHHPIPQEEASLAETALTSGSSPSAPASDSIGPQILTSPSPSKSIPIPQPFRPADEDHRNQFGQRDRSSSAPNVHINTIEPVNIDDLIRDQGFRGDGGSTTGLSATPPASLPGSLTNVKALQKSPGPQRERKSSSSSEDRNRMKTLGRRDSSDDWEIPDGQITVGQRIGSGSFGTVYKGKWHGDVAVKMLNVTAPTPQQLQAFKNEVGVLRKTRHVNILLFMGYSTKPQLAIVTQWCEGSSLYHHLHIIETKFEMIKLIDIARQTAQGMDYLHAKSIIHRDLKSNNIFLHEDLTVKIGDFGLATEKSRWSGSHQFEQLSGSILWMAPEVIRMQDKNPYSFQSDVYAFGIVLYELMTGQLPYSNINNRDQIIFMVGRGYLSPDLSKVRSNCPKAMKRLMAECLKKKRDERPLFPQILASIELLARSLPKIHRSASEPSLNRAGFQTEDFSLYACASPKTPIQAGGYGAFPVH
Data set [28] concerns the target T1, Vascular endothelial growth factor receptor 2. The data set can be described thus: Inhibition of VEGFR2 (unknown origin) incubated for 1 hr in presence of ATP by ELISA method. For orientation: ELISA stands for enzyme-linked immunosorbent assay.
A short description of data set [29]: Cytotoxicity against HUVEC cells assessed as cell growth inhibition incubated for 72 hrs by MTT assay. To be noted: human. In kind it is toxicity, cell-based.
The target in data set [30] is T1, Vascular endothelial growth factor receptor 2. The data set is described as follows: Inhibition of VEGFR2 (unknown origin) by kinase profiling assay.

T1 sequence (P35968 whole entry): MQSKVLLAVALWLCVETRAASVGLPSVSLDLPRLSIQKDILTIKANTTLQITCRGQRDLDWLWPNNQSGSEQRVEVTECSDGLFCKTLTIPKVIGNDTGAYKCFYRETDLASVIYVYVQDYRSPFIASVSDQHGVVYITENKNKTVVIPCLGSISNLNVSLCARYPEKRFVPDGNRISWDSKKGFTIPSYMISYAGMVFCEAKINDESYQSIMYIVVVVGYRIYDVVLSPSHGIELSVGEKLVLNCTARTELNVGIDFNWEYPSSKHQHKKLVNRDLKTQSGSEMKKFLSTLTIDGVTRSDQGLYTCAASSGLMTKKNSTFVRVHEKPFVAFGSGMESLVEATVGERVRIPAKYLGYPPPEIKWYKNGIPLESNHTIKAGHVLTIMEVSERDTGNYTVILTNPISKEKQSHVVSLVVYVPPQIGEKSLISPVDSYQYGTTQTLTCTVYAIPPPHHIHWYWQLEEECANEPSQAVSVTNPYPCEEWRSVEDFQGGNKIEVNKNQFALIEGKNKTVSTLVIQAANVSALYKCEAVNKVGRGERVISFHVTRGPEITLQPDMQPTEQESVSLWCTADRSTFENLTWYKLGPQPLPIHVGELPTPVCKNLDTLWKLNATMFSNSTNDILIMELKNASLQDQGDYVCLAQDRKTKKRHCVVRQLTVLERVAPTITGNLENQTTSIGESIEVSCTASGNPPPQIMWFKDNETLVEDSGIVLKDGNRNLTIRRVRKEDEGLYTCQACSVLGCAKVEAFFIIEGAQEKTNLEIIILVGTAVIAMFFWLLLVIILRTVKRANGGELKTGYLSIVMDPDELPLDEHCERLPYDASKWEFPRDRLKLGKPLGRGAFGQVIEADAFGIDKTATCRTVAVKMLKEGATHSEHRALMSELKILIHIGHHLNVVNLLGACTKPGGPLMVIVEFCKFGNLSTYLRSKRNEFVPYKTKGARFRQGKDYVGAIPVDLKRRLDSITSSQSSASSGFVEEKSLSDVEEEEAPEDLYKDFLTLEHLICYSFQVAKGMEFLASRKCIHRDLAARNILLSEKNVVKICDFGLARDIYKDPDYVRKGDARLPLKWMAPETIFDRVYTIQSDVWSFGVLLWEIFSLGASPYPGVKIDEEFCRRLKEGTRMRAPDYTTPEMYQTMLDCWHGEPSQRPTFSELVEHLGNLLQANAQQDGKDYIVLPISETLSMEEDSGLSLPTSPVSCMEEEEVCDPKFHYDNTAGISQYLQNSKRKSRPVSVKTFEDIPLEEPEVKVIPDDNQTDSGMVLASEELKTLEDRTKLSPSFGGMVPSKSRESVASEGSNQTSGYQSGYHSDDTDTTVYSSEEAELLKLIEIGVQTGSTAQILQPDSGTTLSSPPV
Sequence of Histone deacetylase 4 (P56524 whole entry): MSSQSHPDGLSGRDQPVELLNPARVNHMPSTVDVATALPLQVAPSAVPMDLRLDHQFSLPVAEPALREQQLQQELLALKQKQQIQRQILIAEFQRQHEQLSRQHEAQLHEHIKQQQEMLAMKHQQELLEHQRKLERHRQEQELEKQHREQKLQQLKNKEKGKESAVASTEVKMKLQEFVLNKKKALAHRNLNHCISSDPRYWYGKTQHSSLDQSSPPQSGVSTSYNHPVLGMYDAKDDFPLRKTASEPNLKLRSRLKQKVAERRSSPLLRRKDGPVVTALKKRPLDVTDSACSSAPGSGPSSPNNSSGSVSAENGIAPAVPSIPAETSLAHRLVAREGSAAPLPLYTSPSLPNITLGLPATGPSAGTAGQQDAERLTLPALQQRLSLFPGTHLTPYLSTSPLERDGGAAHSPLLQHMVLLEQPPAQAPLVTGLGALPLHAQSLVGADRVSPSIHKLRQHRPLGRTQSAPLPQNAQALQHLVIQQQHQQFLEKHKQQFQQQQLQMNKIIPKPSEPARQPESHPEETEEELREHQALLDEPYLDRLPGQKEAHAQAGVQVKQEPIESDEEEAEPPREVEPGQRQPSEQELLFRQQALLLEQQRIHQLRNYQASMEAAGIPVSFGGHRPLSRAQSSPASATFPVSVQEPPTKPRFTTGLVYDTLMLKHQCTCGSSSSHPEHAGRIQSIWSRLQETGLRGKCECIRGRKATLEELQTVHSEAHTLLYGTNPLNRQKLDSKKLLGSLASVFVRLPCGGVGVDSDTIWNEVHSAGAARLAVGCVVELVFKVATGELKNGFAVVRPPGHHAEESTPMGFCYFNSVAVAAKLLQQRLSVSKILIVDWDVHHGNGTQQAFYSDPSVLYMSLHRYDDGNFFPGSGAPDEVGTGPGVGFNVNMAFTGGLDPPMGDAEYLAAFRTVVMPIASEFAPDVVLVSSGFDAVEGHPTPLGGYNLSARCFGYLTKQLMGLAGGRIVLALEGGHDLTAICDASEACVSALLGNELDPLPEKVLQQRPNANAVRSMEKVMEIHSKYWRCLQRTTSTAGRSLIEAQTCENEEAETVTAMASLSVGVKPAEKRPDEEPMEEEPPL

In the case of `Cc1c2ccc(N(C)c3ccnc(Nc4ccc(C(=O)Nc5ccccc5N)cc4)n3)cc2nn1C`, the pIC50 in data set [1] was below 5.00.
As for `COc1ccc(/C=N/n2c(SCC(=O)c3ccc(Cl)cc3)nnc2-c2cc3ccccc3[nH]2)cc1`, the pIC50 in [2] is 6.05; in data set [3], 5.66.
Regarding `N=c1cc(N)nc2sc(NC(=O)c3cccs3)nn12`, the pIC50 in data set [4] was 5.09; in data set [5], 5.37; in data set [6], 4.48; in [7], 5.07; in data set [8], 5.11.
Turning to `CCn1c(SCC(=O)NNC(=O)c2ccccc2)nc2ccc([N+](=O)[O-])cc2c1=O`, the IC50 in [9] worked out at 17.2 µg/mL (≈ 40.3 µM); in data set [10] it was 26.1 µg/mL (≈ 61.1 µM); in data set [11], 30.8 µg/mL (≈ 72.2 µM).
As for `CCNC(=S)NS(=O)(=O)c1ccc(NC(=O)CSc2cc3ccccc3c(=O)n2CC)cc1`, the pIC50 in data set [12] is 5.51.
Consider `Cc1cc(C)nc(NS(=O)(=O)c2ccc(NN=C3C(=O)NNC3=O)cc2)n1`, for which the pIC50 was 6.85 in data set [13], 5.19 in data set [14], 5.02 in [15] and 4.98 in data set [16]. Moreover, the IC50 at 24 h in [17] stood at 39.4 µM.
As for `Cc1c2ccc(Nc3ccnc(Nc4ccc(NC(=O)CCCCCCC(=O)NO)cc4)n3)cc2nn1C`, the pIC50 in data set [4] is 7.80; in data set [18], 6.92; in [1], below 5.00; in data set [19], 7.03; in data set [20] it was 7.74; in data set [21] it was 7.27.
As to `COc1ccc(C2CC(c3ccc(Cl)cc3Cl)=NN2c2nc(C)c(C(=O)Nc3ccccc3)s2)cc1OC` (stereo not given), the pIC50 in data set [22] is 5.53; in data set [23], 5.42; in [24], 5.45; in data set [25], 5.36.
On to `O=C(CSc1nc2sc3c(c2c(=O)n1-c1ccc(Cl)cc1)CCCC3)NNC(=O)Nc1ccc(Cl)c(C(F)(F)F)c1`, for which the pIC50 was 7.31 in data set [4], 7.30 in data set [26] and 7.20 in data set [27].
With `CNC(=O)c1nc(Nc2ccc(NC(=O)Nc3cccc(C)c3)cc2)c2ccccc2n1`, the pIC50 in data set [28] was 7.92.
For `COc1ccc(-c2cc3c(ccn4nc(-c5cccnc5)nc34)o2)cc1`, the pIC50 in data set [12] and in data set [30] was 4.41 in each case. For the same molecule, in data set [29], the IC50 at 72 h was 17.4 µM.
As for `CCOC(=O)c1sc(N2N=C(c3ccc(Cl)cc3Cl)CC2c2ccc(OC)cc2)nc1C` (stereo not given), the pIC50 in data set [22] was 5.37; in [23], 5.32; in [24] it was 5.25; in data set [25] it was 5.21.
Consider `Cc1ccc(/C=N/n2c(-c3cc4ccccc4[nH]3)n[nH]c2=S)cc1`, for which the values for the negative logarithm of the IC50 (pIC50) in data set [2] and in data set [3] were 5.20 and 5.13, respectively.

As a reminder, the pIC50 is the negative decadic logarithm of the IC50, by convention in mol/L. A word on the IC50: it is the concentration that gives 50% inhibition.
